Data published in ChEMBL document CHEMBL1201862, “PubChem BioAssay data set” (2004).
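In this assay, cells in 96-well plates receive the compound at five concentrations for 48 hours. Endpoints are linearly interpolated between the surrounding concentrations. Here, GI50 denotes the concentration required for 50% inhibition of growth.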 The source made the active and inactive calls. No stated cut-off is given here; in the data, active = GI50 up to about 1.1 µM and inactive = higher.

Key:
Experiment in all cases: NCI tumour cell line growth inhibition, 48 h
UACC-62 = tested on: UACC-62
OVCAR-5 = tested on: OVCAR-5
KM12 = tested on: KM12
SF-268 = tested on: SF-268
LXFL 529 = tested on: LXFL 529
UACC-257 = tested on: UACC-257
HOP-92 = tested on: HOP-92
MOLT-4 = tested on: MOLT-4
TK-10 = tested on: TK-10
DMS-114 = tested on: DMS-114
SK-OV-3 = tested on: SK-OV-3
K562 = tested on: K562
HCC 2998 = tested on: HCC 2998
HL-60 = tested on: HL-60
CAKI-1 = tested on: CAKI-1
SNB-75 = tested on: SNB-75
HCT-15 = tested on: HCT-15
NCI-H460 = tested on: NCI-H460
Malme-3M = tested on: Malme-3M
HOP-62 = tested on: HOP-62
HOP-18 = tested on: HOP-18
RXF 631 = tested on: RXF 631
HCT-116 = tested on: HCT-116
OVCAR-3 = tested on: OVCAR-3
SNB-78 = tested on: SNB-78
OVCAR-8 = tested on: OVCAR-8
HT-29 = tested on: HT-29
NCI-H522 = tested on: NCI-H522
SN12C = tested on: SN12C
SF-539 = tested on: SF-539
SK-MEL-28 = tested on: SK-MEL-28
U-251 = tested on: U-251
A498 = tested on: A498
ACHN = tested on: ACHN
M19-MEL = tested on: M19-MEL
786-0 = tested on: 786-0
EKVX = tested on: EKVX
OVCAR-4 = tested on: OVCAR-4
A549 = tested on: A549
LOX IMVI = tested on: LOX IMVI
DMS-273 = tested on: DMS-273
SNB-19 = tested on: SNB-19
SW-620 = tested on: SW-620
CCRF-CEM = tested on: CCRF-CEM
IGROV-1 = tested on: IGROV-1
NCI-H23 = tested on: NCI-H23
SF-295 = tested on: SF-295
M14 = tested on: M14
NCI-H226 = tested on: NCI-H226
RPMI-8226 = tested on: RPMI-8226
DLD-1 = tested on: DLD-1
COLO 205 = tested on: COLO 205
RXF 393 = tested on: RXF 393
UO-31 = tested on: UO-31
SR = tested on: SR
SK-MEL-2 = tested on: SK-MEL-2
KM-20L2 = tested on: KM-20L2
SK-MEL-5 = tested on: SK-MEL-5

With `CC[n+]1c(/C=C/c2ccc(N(CCCl)CCCl)cc2)ccc2cc(I)ccc21` the GI50 (UACC-62) was 507 nM (active), the GI50 (OVCAR-5) was 1960 nM (inactive) and the GI50 (KM12) was 1080 nM (active). The GI50 (SF-268) was 1780 nM (inactive), the GI50 (LXFL 529) was 409 nM (active) and the GI50 (UACC-257) was 514 nM (active). For the same compound, the GI50 (HOP-92) was 379 nM (active), the GI50 (MOLT-4) was 723 nM (active) and the GI50 (TK-10) was 2050 nM (inactive). For the same compound, the GI50 (DMS-114) was 607 nM (active), the GI50 (SK-OV-3) was 1310 nM (inactive) and the GI50 (K562) was 335 nM (active). The GI50 (HCC 2998) was 1240 nM (inactive), the GI50 (HL-60) was 217 nM (active) and the GI50 (CAKI-1) was 2000 nM (inactive). The GI50 (SNB-75) was 394 nM (active), the GI50 (HCT-15) was 6520 nM and the GI50 (NCI-H460) was 1310 nM (inactive). For the same compound, the GI50 (Malme-3M) was 600 nM (active), the GI50 (HOP-62) was 1510 nM (inactive) and the GI50 (HOP-18) was 1020 nM (active). For the same compound, the GI50 (RXF 631) was 1770 nM (inactive), the GI50 (HCT-116) was 318 nM (active) and the GI50 (OVCAR-3) was 553 nM (active). For the same compound, the GI50 (SNB-78) was 895 nM (active), the GI50 (OVCAR-8) was 771 nM (active) and the GI50 (HT-29) was 1840 nM (inactive). The GI50 (NCI-H522) was 312 nM (active), the GI50 (SN12C) was 1280 nM (inactive) and the GI50 (SF-539) was 979 nM (active). The GI50 (SK-MEL-28) was 912 nM (active), the GI50 (U-251) was 670 nM (active) and the GI50 (A498) was 2510 nM (inactive). For the same compound, the GI50 (ACHN) was 2710 nM (inactive), the GI50 (M19-MEL) was 608 nM (active) and the GI50 (786-0) was 1240 nM (inactive). For the same compound, the GI50 (EKVX) was 2740 nM (inactive), the GI50 (OVCAR-4) was 608 nM (active) and the GI50 (A549) was 3040 nM (inactive). The GI50 (LOX IMVI) was 766 nM (active), the GI50 (DMS-273) was 525 nM (active) and the GI50 (SNB-19) was 843 nM (active). For the same compound, the GI50 (SW-620) was 916 nM (active), the GI50 (CCRF-CEM) was 319 nM (active) and the GI50 (IGROV-1) was 587 nM (active). The GI50 (NCI-H23) was 1230 nM (inactive), the GI50 (SF-295) was 2040 nM (inactive) and the GI50 (M14) was 1210 nM (inactive). The GI50 (NCI-H226) was 1240 nM (inactive), the GI50 (RPMI-8226) was 601 nM (active) and the GI50 (DLD-1) was 1580 nM (inactive). The GI50 (COLO 205) was 191 nM (active), the GI50 (RXF 393) was 839 nM (active) and the GI50 (UO-31) was 5930 nM (inactive). The GI50 (SR) was 659 nM (active), the GI50 (SK-MEL-2) was 372 nM (active) and the GI50 (KM-20L2) was 1020 nM (active). The GI50 (SK-MEL-5) was 552 nM (active).
